Laboratory results reported in patent publication US7211597B2, “Substituted pyrazolyl compounds for the treatment of inflammation” (priority 2001, dated 2007).
pIC50: −log10 of the molar value.

Biological target: T1, IKK2 (IKKβ) (Homo sapiens, UniProt O14920)
T1 construct: made in house; host or cells: baculovirus-infected insect cells (SF9)
T1 sequence (O14920 1-756): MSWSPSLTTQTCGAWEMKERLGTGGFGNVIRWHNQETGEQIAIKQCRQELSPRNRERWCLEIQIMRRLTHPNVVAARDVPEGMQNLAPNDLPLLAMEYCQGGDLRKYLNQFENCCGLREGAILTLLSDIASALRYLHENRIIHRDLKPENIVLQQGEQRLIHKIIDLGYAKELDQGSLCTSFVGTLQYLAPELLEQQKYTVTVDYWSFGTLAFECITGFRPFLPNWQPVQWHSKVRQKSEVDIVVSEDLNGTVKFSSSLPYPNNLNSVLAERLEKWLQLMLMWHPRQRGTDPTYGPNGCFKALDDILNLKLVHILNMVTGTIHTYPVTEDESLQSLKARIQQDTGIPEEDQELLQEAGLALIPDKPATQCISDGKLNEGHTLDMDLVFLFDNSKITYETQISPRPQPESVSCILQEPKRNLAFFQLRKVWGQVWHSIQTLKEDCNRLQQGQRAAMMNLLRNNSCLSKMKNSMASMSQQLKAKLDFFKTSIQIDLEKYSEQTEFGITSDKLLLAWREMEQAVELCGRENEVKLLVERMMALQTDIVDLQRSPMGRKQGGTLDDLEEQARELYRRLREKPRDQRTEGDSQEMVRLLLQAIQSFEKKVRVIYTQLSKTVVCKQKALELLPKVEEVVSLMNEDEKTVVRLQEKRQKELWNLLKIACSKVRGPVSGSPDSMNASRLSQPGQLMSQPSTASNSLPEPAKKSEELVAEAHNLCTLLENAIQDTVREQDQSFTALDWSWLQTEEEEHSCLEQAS
Experiment: IKK2 (IKKβ) resin enzyme assay
Type: biochemical
Details: Table 2; read-out: IKK2 Resin Avg. IC50
Source text: cDNAs of human IKK1 and IKK2 were amplified by reverse transcriptase-polymerase chain reaction from human placental RNA (Clonetech). hIKK1 was subcloned into pFastBac HTa (Life Technologies) and expressed as N-terminal His6-tagged fusion protein. The hIKK2 cDNA was amplified using a reverse oligonucleotide primer which incorporated the peptide sequence for a FLAG-epitope tag at the C-terminus of the IKK2 coding region (DYKDDDDKD). The hIKK2:FLAG cDNA was subcloned into the baculovirus vector pFastBac. The rhIKK2 ([…]) mutant was constructed in the same vector used for wild type rhIKK2 using a QuikChange™ mutagenesis kit (Stratagene). Viral stocks of each construct were used to infect insect cells grown in 40L suspension culture. […] Cell lysates were stored at −80° C. until purification of the recombinant proteins was undertaken as described below.
Isolation of rhIKK2 Homodimer
A 10 liter culture of baculovirus-expressing IKK2 tagged with FLAG peptide was centrifuged and the cell pellet (MOI=0.1 and I=72 hrs) was re-suspended in buffer A. These cells were microfluidized, and centrifuged at 100,000×g for 45 min. Supernatant was passed over a G-25 column equilibrated with Buffer A. Protein peak was collected and incubated with anti-FLAG affinity resin on a rotator overnight in buffer B. The resin was washed in batch with 10-15 bed volumes of buffer C. Washed resin was poured into a column and rhIKK2 homodimer was eluted using 5 bed volumes of buffer B containing FLAG peptide. 5 mM DTT, 0.1% NP-40 and BSA (concentrated to 0.1% in final amount) was added to the eluted enzyme before concentrating in using an Amicon membrane with a molecular weight cut-off of 30 kDa. Enzyme was aliquoted and stored at −80° C.
IKKβ kinase activity was measured using a biotinylated IκBα peptide (Gly-Leu-Lys-Lys-Glu-Arg-Leu-Leu-Asp-Asp-Arg-His-Asp-Ser32-Gly-Leu-Asp-Ser36-Met-Lys-Asp-Glu-Glu) (American Peptide Co.). […] contained 5 μM biotinylated IκBα peptide, 0.1 μCi/reaction [γ-^33P] ATP (Amersham) (about 1×10^5 cpm), 1 μM ATP (Sigma), 1 mM DTT (Sigma), 2 mM MgCl2 (Sigma), 2 mM MnCl2 (Sigma), 10 mM NaF (Sigma), 25 mM Hepes (Sigma) buffer, pH 7.6 and 20 μl enzyme solution and […] inhibitor in a final volume of 50 μl. After incubation at 25° C. for 30 min, 150 μl resin (Dowex anion-exchange resin AG1X8 200-400 mesh) in 900 mM formate, pH 3.0 was added to each well to stop the reaction. Resin was allowed to settle for one hour and 50 ul of supernatant was removed to a Micolite-2 flat bottom plate (Dynex). 150 μl of scintillation fluid (Microscint 40) (Packard) was added to each well. Incorporation of [γ-^33P] ATP was measured using a Top-Count NXT (Packard).

How did the pIC50 turn out when `CC(=O)N1Cc2c(C(N)=O)nn(-c3ccc4c(c3)OCO4)c2-c2cc(N)ccc21` [Example 17, 5-acetyl-8-amino-1-(1,3-benzodioxol-5-yl)-4,5-dihydro-1H-pyrazolo[4,3-c]quinoline-3-carboxamide acetate] was run?
Its pIC50 is at least 6.00.

`CC(=O)N1Cc2c(C(N)=O)nn(-c3ccc(F)cc3)c2-c2cc(NS(C)(=O)=O)ccc21` [Example 25, 5-acetyl-1-(4-fluorophenyl)-8-[(methylsulfonyl)amino]-4,5-dihydro-1H-pyrazolo[4,3-c]quinoline-3-carboxamide] was tested. Which pIC50 did it give?
The pIC50 was over 6.00.

How did the pIC50 turn out when `CC(=O)N1Cc2c(C(N)=O)nn(-c3ccc4c(c3)OCO4)c2-c2cc(NC(=O)c3ccncc3Cl)ccc21` [Example 22, 5-acetyl-1-(1,3-benzodioxol-5-yl)-8-[(3-chloroisonicotinoyl)amino]-4,5-dihydro-1H-pyrazolo[4,3-c]quinoline-3-carboxamide] was run?
The pIC50 was over 6.00.

`CC(=O)N1Cc2c(C(N)=O)nn(-c3ccc4c(c3)OCO4)c2-c2cc(NC(=O)c3ccccc3Cl)ccc21` [Example 18, 5-acetyl-1-(1,3-benzodioxol-5-yl)-8-[(2-chlorobenzoyl)amino]-4,5-dihydro-1H-pyrazolo[4,3-c]quinoline-3-carboxamide] was tested. Which pIC50 did it give?
The pIC50 was at least 6.00.

How did the pIC50 turn out when `CC(=O)N1Cc2c(C(N)=O)nn(-c3ccc4c(c3)OCO4)c2-c2cc(NS(C)(=O)=O)ccc21` [Example 23, 5-acetyl-1-(1,3-benzodioxol-5-yl)-8-[(methylsulfonyl)amino]-4,5-dihydro-1H-pyrazolo[4,3-c]quinoline-3-carboxamide] was run?
Its pIC50 is over 6.00.

Same assay, conditions: Table 3; read-out: IKK2 Resin IC50

How did the pIC50 turn out when `NC(=O)c1nn(-c2ccc3c(c2)OCO3)c2c1COc1ccc(NC(=O)c3ccccc3Cl)cc1-2` [Example 34, 1-(1,3-benzodioxol-5-yl)-8-[(2-chlorobenzoyl)amino]-1,4-dihydrochromeno[4,3-c]pyrazole-3-carboxamide] was run?
The pIC50 was at least 6.00.

With `NC(=O)c1nn(-c2ccc3c(c2)OCO3)c2c1COc1ccc(NC(=O)c3ccncc3Cl)cc1-2` [Example 32, 1-(1,3-benzodioxol-5-yl)-8-[(3-chloroisonicotinoyl)amino]-1,4-dihydrochromeno[4,3-c]pyrazole-3-carboxamide] as the molecule, how does the pIC50 read?
Its pIC50 is at least 6.00.

`NC(=O)c1nn(-c2ccc3c(c2)OCO3)c2c1COc1ccc(NC(=O)c3cccc(Cl)c3Cl)cc1-2` [Example 45, 1-(1,3-benzodioxol-5-yl)-8-[(2,3-dichlorobenzoyl)amino]-1,4-dihydrochromenol[4,3-c]pyrazole-3-carboxamide] was tested. Which pIC50 did it give?
Its pIC50 is at most 4.00.

With `NC(=O)c1nn(-c2ccc3c(c2)OCO3)c2c1COc1ccc(NC(=O)c3cc4c(cc3Cl)OCO4)cc1-2` [Example 31, 1-(1,3-benzodioxol-5-yl)-8-{[(6-chloro-1,3-benzodioxol-5-yl)carbonyl]amino}-1,4-dihydrochromeno[4,3-c]pyrazole-3-carboxamide] as the molecule, how does the pIC50 read?
Its pIC50 is at least 6.00.

`NC(=O)c1nn(-c2ccc3c(c2)OCO3)c2c1COc1ccc(NC(=O)c3cc(N)ccc3Cl)cc1-2` [Example 33, 8-[(5-amino-2-chlorobenzoyl)amino]-1-(1,3-benzodioxol-5-yl)-1,4-dihydrochromeno[4,3-c]pyrazole-3-carboxamide] was tested. Which pIC50 did it give?
Its pIC50 is at least 6.00.

Same assay, conditions: Table 4; read-out: IKK2 Resin IC50

`NC(=O)c1nn(-c2ccc(F)cc2)c2c1COc1ccc(NC(=O)c3cccnc3Cl)cc1-2` [Example 47, 8-{[(2-chloropyridin-3-yl)carbonyl]amino}-1-(4-fluorophenyl)-1,4-dihydrochromenol[4,3-c]pyrazole-3-carboxamide] was tested. Which pIC50 did it give?
The pIC50 was at least 6.00.

With `NC(=O)c1nn(-c2cccc(F)c2)c2c1COc1ccc(NC(=O)c3cccnc3Cl)cc1-2` [Example 48, 8-{[(2-chloropyridin-3-yl)carbonyl]amino}-1-(3-fluorophenyl)-1,4-dihydrochromenol[4,3-c]pyrazole-3-carboxamide] as the molecule, how does the pIC50 read?
The pIC50 was at least 6.00.

`NC(=O)c1nn(-c2ccc(F)cc2)c2c1COc1ccc(NC(=O)c3ccncc3Cl)cc1-2` [Example 53, 8-[(3-chloroisonicotinoyl)amino]-1-(4-fluorophenyl)-1,4-dihydrochromeno[4,3-c]pyrazole-3-carboxamide] was tested. Which pIC50 did it give?
Its pIC50 is over 6.00.

Same assay, conditions: Table 5; read-out: IKK2 Resin IC50

`CS(=O)(=O)c1ccc(-n2nc(C(N)=O)c3c2-c2cc(NC(=O)c4ccccc4Cl)ccc2OC3)cc1` [Example 54, 8-[(2-chlorobenzoyl)amino]-1-[4-(methylsulfonyl)phenyl]-1,4-dihydrochromeno[4,3-c]pyrazole-3-carboxamide] was tested. Which pIC50 did it give?
Its pIC50 is at least 6.00.

With `CSc1ccc(-n2nc(C(N)=O)c3c2-c2cc(NC(=O)c4ccccc4Cl)ccc2OC3)cc1` [Example 57] as the molecule, how does the pIC50 read?
The pIC50 was at most 5.00.

With `C[S+]([O-])c1ccc(-n2nc(C(N)=O)c3c2-c2cc(NC(=O)c4ccccc4Cl)ccc2OC3)cc1` (stereo not shown) [Example 55, 8-[(2-chlorobenzoyl)amino]-1-[4-(methylsulfinyl)phenyl]-1,4-dihydrochromeno[4,3-c]pyrazole-3-carboxamide] as the molecule, how does the pIC50 read?
The pIC50 was at most 6.00.
